Measurements taken from US20250339409A1, “USES OF PAN BET INHIBITORS” (VYNE THERAPEUTICS INC., priority 2021, published 2025).

System: imiquimod-induced psoriasis
Assay: Imiquimod-induced psoriasis (Th17 inflammation) model in mice, topical treatment once daily D7-D13: PASI, modified PASI, body weight, use of enrichment, TEWL
Type: in vivo
Set-up: key to Mean score use enrichment: 0 = no use of dental rolls to 4 = use of all 4; key to PASI Mean score values: sum of erythema, induration, peeling scores, each 0-3 (0 = none)
Conditions: imiquimod-induced mice
Protocol: Thirty-six (36) female Balb/c mice are weighed and randomly divided into 9 groups (n=4) according to body weight on D1. For mice of native group 1 and tolerance groups 8 and 9, no induction of psoriasis is performed between D1 and D13. Psoriasis is induced in groups 2 to 7 by once daily topical application for 13 days (from day 1 to day 13) of 65 mg of Aldara™ cream (5.0% imiquimod) onto the shaved and epilated back of mice. Before the first treatment, a second randomization of mice of the 6 imiquimod-induced psoriasis groups is performed according to the severity of psoriasis (PASI), and also the body weight of mice. Starting on day 7 and until day 13, 100 mg of test formulations […] and 65 mg of vehicle (groups 1 and […]) are topically administered once daily for 7 consecutive days onto the shaved back skin of mice. Several measurements are taken during treatment period from day 7 to day 14: psoriasis index (PASI), body weight, use of enrichment and mortality. At the end of treatment period, TEWL is assessed, and blood and skin samples are collected. Histological analysis of skin samples is used for microscopic scoring of psoriasis and the determination of the thickness of parakeratosis and epidermis and blood analysis is used for assessing the level of proinflammatory biomarkers (cytokines assays). The effect of treatment of psoriasis induced mice with BETi formulations at the four dose levels are compared with Dermoval® cream containing 0.05% clobetasol propionate (reference) and vehicle (positive control) and also with healthy mice treated with vehicle (negative control).
PASI scoring takes into account the following 3 parameters: the presence of erythema on the skin, induration of the skin (thickening) and peeling of the skin at the area of the induction of psoriasis.
The presence of erythema on the skin at the area of induction of psoriasis with the following scoring grid: • 0=no or no more erythema on the skin, • 1=weak erythema on the skin, • 2=moderate erythema on the skin, • 3=important erythema on the skin.
The presence of induration of the skin at the area of induction of psoriasis with the following scoring grid: • 0=no or no more induration of the skin, • 1=weak induration of the skin, • 2=moderate induration of the skin, • 3=important induration of the skin.
The presence of peeling of the skin at the area of induction of psoriasis with the following scoring grid: • 0=no or no more dryness/peeling of the skin, • 1=weak dryness/peeling of the skin, • 2=moderate dryness/peeling of the skin, • 3=important dryness/peeling of the skin.
The sum of the mean scores of these 3 parameters result in the mean PASI score.
One of the issues with a steroid is that it causes skin thinning and continues to have an effect on no longer inflamed skin and the model set up and measurements above are not designed to reflect this negative effect. Therefore, a modified PASI (mPASI) is calculated in the same the manner as mean PASI score but excludes the scoring for induration (thickening of the skin).
Mice are weighed three times during the week of D1 to D7, and then daily during the week of D7 to D13, as well as on the day D14 when they are sacrificed. It should be noted that a characteristic body weight loss of mice is observed after the start of the induction of psoriasis, mainly during the first days following it. The body weight loss can reach between 10 to 15%.
For the duration of the experiment, dental rolls are used as enrichment and placed in each cage and replaced twice. Between D1 and D7, the number of dental rolls used by animals are determined twice in the morning, and are determined daily during D7 to D14, at the time of PASI or the tolerance assessment. The use of dental rolls is scored from 0=no use of dental rolls to 4=use of the 4 dental rolls. In the case where only half of a dental roll is used, a score of 0.5 is assigned. […]

## Cn1cc(-c2cccc(O)c2Oc2ccccc2)c2cc[nH]c2c1=O [BETi1]
D 2, listed as BETI1 0.1%
  Modified PASI Mean score values: 0.50
  PASI Mean score values: 0.50
D 2, listed as BETI1 1.0%
  Modified PASI Mean score values: 1.00
  PASI Mean score values: 1.00
D 2, listed as BETi 0.001%
  Mean score use enrichment: 0.25
D 2, listed as BETi 0.01%
  Mean score use enrichment: 0.50
D 2, listed as BETi 0.1%
  Mean score use enrichment: 0.75
D 2, listed as BETi1 0.001%
  Modified PASI Mean score values: 1.00
  PASI Mean score values: 1.25
D 2, listed as BETi1 0.01%
  Modified PASI Mean score values: 0.25
  PASI Mean score values: 0.25
D 2, listed as BETi 1.0%
  Mean score use enrichment: 0.75
D 3, listed as BETI1 0.1%
  Modified PASI Mean score values: 1.25
  PASI Mean score values: 1.25
D 3, listed as BETI1 1.0%
  Modified PASI Mean score values: 1.25
  PASI Mean score values: 1.25
D 3, listed as BETi 0.001%
  Mean score use enrichment: 0.75
D 3, listed as BETi 0.01%
  Mean score use enrichment: 0.50
D 3, listed as BETi 0.1%
  Mean score use enrichment: 1.25
D 3, listed as BETi1 0.001%
  Modified PASI Mean score values: 1.00
  PASI Mean score values: 1.00
D 3, listed as BETi1 0.01%
  Modified PASI Mean score values: 1.25
  PASI Mean score values: 1.25
D 3, listed as BETi 1.0%
  Mean score use enrichment: 1.00
D 4
  Modified PASI Mean score values: 2.75
D 4, listed as BETI1 0.1%
  PASI Mean score values: 3.00
D 4, listed as BETI1 1.0%
  PASI Mean score values: 3.25
D 4, listed as BETi 0.001%
  Mean score use enrichment: 1.00
D 4, listed as BETi 0.01%
  Mean score use enrichment: 0.75
D 4, listed as BETi 0.1%
  Mean score use enrichment: 1.25
D 4, listed as BETi1 0.001%
  PASI Mean score values: 3.25
D 4, listed as BETi1 0.01%
  PASI Mean score values: 3.25
D 4, listed as BETi 1.0%
  Mean score use enrichment: 1.00
D 5, listed as BETI1 0.1%
  Modified PASI Mean score values: 4.50
  PASI Mean score values: 5.75
D 5, listed as BETI1 1.0%
  Modified PASI Mean score values: 4.00
  PASI Mean score values: 5.50
D 5, listed as BETi 0.001%
  Mean score use enrichment: 1.25
D 5, listed as BETi 0.01%
  Mean score use enrichment: 0.75
D 5, listed as BETi 0.1%
  Mean score use enrichment: 0.50
D 5, listed as BETi1 0.001%
  Modified PASI Mean score values: 4.00
  PASI Mean score values: 5.00
D 5, listed as BETi1 0.01%
  Modified PASI Mean score values: 4.00
  PASI Mean score values: 5.25
D 5, listed as BETi 1.0%
  Mean score use enrichment: 1.50
D 6, listed as BETI1 0.1%
  Modified PASI Mean score values: 4.50
  PASI Mean score values: 7.00
D 6, listed as BETI1 1.0%
  Modified PASI Mean score values: 4.75
  PASI Mean score values: 7.25
D 6, listed as BETi 0.001%
  Mean score use enrichment: 1.25
D 6, listed as BETi 0.01%
  Mean score use enrichment: 1.25
D 6, listed as BETi 0.1%
  Mean score use enrichment: 0.75
D 6, listed as BETi1 0.001%
  Modified PASI Mean score values: 4.75
  PASI Mean score values: 7.25
D 6, listed as BETi1 0.01%
  Modified PASI Mean score values: 4.75
  PASI Mean score values: 7.00
D 6, listed as BETi 1.0%
  Mean score use enrichment: 1.50
